These are literature values, as cited in US20200138985A1, “KIT FOR LABELING A PROSTATE-SPECIFIC MEMBRANE ANTIGEN LIGAND WITH A RADIOACTIVE ISOTOPE” (Isotopia Molecular Imaging Ltd., priority 2015, published 2020).

A word on the Kd: it is the constant that tells how readily two partners part at equilibrium.

The series concerns the target T1, PSMA (Homo sapiens, UniProt Q04609).
T1 construct: In cell research with PSMA-positive androgen-insensitive LNCaP-C4-2 cells; endogenous in cells; host or cells: LNCaP-C4-2 cells
To be noted: PSMA-positive androgen-insensitive LNCaP-C4-2 cells.

T1 sequence (Q04609 whole entry): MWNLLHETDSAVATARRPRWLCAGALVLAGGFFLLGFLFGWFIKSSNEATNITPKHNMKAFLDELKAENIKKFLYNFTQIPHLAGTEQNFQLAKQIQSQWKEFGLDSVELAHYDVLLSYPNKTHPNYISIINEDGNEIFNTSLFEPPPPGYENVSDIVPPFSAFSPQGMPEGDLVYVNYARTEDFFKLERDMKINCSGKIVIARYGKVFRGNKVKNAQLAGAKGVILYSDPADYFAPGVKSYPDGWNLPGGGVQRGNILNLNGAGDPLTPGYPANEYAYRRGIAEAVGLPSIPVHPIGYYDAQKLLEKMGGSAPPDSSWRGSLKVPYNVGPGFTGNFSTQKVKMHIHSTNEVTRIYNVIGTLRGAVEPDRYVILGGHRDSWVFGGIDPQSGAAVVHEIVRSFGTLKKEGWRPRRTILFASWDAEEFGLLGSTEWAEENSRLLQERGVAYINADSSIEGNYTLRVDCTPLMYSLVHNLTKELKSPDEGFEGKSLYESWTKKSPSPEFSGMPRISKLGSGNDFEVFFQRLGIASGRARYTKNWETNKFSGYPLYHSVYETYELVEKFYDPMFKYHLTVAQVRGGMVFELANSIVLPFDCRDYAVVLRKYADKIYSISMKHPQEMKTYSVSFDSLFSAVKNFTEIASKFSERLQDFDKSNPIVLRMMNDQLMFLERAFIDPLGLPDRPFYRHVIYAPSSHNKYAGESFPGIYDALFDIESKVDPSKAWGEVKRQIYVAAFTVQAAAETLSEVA

“(5S,8S,22S,26S)-1-amino-5,8-dibenzyl-4,7,10,19,24-pentaoxo-3,6,9,18,23,25-hexaazaoctacosane-22,26,28-tricarboxylic acid (DUPA-Pep), conjugated with 1,4,7,10-tetraazacyclododecane-N,N,N′,N″-tetraacetic acid (DOTA)”: the Kd is 0.0216 ± 0.0004 µM.

As to “cyclohexyl-diethylene triamine pentaacetic acid-(5S,8S,22S,26S)-1-amino-5,8-dibenzyl-4,7,10,19,24-pentaoxo-3,6,9,18,23,25-hexaazaoctacosane-22,26,28- tricarboxylic acid [CHX-A″-DTPA-DUPA-Pep]”, the Kd was not above 0.0147 µM.
